The record followed here is patent US12552767B2, “3-heteroaryl pyrrolidine and piperidine orexin receptor agonists” (Merck Sharp & Dohme LLC, priority 2020, dated 2026).

The target of this assay is T1, human OX2R (Homo sapiens, UniProt O43614).
T1 construct: expressed in transfected cells; host or cells: CHO (Chinese hamster ovary) cells, grown under G418 selection
T1 sequence (O43614 1-444): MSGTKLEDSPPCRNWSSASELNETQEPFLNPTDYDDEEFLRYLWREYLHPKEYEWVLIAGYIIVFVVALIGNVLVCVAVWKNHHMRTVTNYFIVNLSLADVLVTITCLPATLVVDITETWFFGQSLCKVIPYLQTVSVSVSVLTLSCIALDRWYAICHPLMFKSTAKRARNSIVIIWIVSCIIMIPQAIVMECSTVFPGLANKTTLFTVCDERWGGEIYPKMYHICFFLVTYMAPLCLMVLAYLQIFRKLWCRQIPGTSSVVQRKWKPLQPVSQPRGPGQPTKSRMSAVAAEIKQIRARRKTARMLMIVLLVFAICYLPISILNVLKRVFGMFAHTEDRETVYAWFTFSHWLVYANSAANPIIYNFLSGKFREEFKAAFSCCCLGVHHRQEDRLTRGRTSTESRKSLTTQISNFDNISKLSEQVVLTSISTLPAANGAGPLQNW
Description: IP-One (IPOne) orexin receptor agonist assay in CHO cells expressing human OX2R. In kind it is cell-based. The settings on record: for EC50: CHO cells expressing human OX2R, IP-One IP-1 detection, 2 hours incubation, four parameter logistic fit, read-out: OX2R Potency, EC50; for % of reference agonist maximal effect: human OX2R, percentage of sample raw value/mean max effect (reference compound at 1 uM with 100% activity). From the text:
The utility of the compounds in accordance with the present invention as orexin receptor OX1R and/or OX2R agonists may be readily determined without undue experimentation by methodology well known in the art. Both the OX1R and/or OX2R G-coupled protein receptors (GPCRs) couple through the Gαq signaling pathway, which ultimately promotes calcium mobilization via inositol triphosphate (IP3) production. The half-life of IP-3 is relatively short, being rapidly metabolized to inositol monophosphate (IP-1), which can be readily detected using a commercially available assay kit (IP-One; Cisbio; cat #621PAPEC) coupled with a cell line expressing the target receptor(s) of interest. The utility of the compounds in accordance with the present invention as orexin receptor OX1R and/or OX2R agonists may be determined utilizing this assay.
In a typical experiment, the OX1 and OX2 receptor agonist activity is determined in accordance with the following general experimental method. Chinese hamster ovary (CHO) cells expressing human OX1R and/or the human OX2R were grown in Iscove's modified DMEM containing glutaMAX™, 1% G418, 100 U/mL penicillin, 100 μg/mL streptomycin and 10% heat-inactivated qualified fetal bovine serum (FBS). The OX2R cells were seeded at 10,000 cells/well/50 μL and the OX1R cells were seeded at 20,000 cells/well/50 μL into 384-well white tissue culture plates (Greiner; cat #781080). All cell/media reagents were from GIBCO-Invitrogen Corp. The seeded cell plate(s) were incubated at 37° C. with 5% CO2 and 85% humidity for 20-24 hours. On the day of the assay, assay-ready compound plates were prepared using an acoustic liquid handler (ECHO; Labcyte), which dispensed sufficient volume of test compound stock (10 mM in DMSO) or 100% DMSO to prepare 10 point, ½-log dilutions in a final volume of 202.5 nL/well in all test wells of a 384-well diamond plate (Labcyte). Following completion of assay-ready plates, importantly, the next three steps were performed with minimal delay: 1) 20 μl of 1× stimulation buffer was added to the compound plate using a Multidrop Combi (small cassette, Thermo Fisher Scientific cat #24073290); 2) culture medium was removed from the cell plate using the Bluewasher plate washer (gentle spin; BlueCatBio); 3) 14 μl of compound/stimulation buffer mixture was added to the cell plate using a Bravo liquid handler (Agilent) prior to incubating cell plates at 37° C. with 5% CO2 and 85% humidity for 1 or 2 hours (OX1R and OX2R, respectively). During this incubation, IP-one detection reagents were prepared (38:1:1 lysis buffer:D2:AB-cryptate reagents). Six μL of mixed detection reagents were added to the cell plate using a Multidrop Combi (small cassette, Thermo Fisher Scientific cat #24073290) and incubated 60 minutes at room temperature in the dark. Fluorescence signal was detected using an Envision plate reader (Perkin Elmer) [LANCE/DELFIA Dual Enh (Em: APC 665; Ex: Cy5 620)].
For each compound, data were fit to a four parameter logistic fit (ActivityBase software) and the EC50 was reported as the inflection point of the resulting curve. Percent effect for each test compound was determined as the percentage of sample raw value/mean max effect, where the mean max effect was derived from the mean raw value of 32 control wells per assay plate (using Orexin A (cat #003-30) at 1 μM for human OX1R and a reference compound at 1 uM with 100% activity previously established by comparison to Orexin A for human OX2R). The intrinsic orexin receptor agonist activity of a compound which may be used in the present invention may be determined by these assays.

For orientation: EC50 means the concentration at which the effect is half-maximal. Turning to `O=C(C1CC1(F)F)N1CCC[C@H](c2cc[nH]n2)[C@@H]1CO[C@H]1CC[C@@H](c2ccccc2)CC1` (relative stereo) [Example 92, (2,2-difluorocyclopropyl)((CIS)-2-((((CIS)-4-phenylcyclohexyl)oxy)methyl)-3-(1H-pyrazol-3-yl)piperidin-1-yl)methanone], the concentration for a half-maximal effect (EC50) was 6.9 µM and the “% of reference agonist maximal effect” value worked out at 88.6%.

For `CC(C)[C@H]1CC[C@@H](OC[C@H]2[C@@H](c3cc[nH]n3)CCCN2C(=O)CCC2CC2)CC1` (relative stereo) [Example 88, 3-cyclopropyl-1-((CIS)-2-((((CIS)-4-isopropylcyclohexyl)oxy)methyl)-3-(1H-pyrazol-3-yl)piperidin-1-yl)propan-1-one], the EC50 stood at 8.98 µM and the “% of reference agonist maximal effect” value came to 79%.

Take `COC(=O)N1[C@H](C)CC(c2ccn[nH]2)[C@@H]1CO[C@H]1CC[C@@H](c2ccccc2)CC1` (stereo partly drawn) [Example 37, Methyl (2R,5R)-5-methyl-2-((((CIS)-4-phenylcyclohexyl)oxy)methyl)-3-(1H-pyrazol-5-yl)pyrrolidine-1-carboxylate]: the concentration for a half-maximal effect (EC50) was 5.11 µM and the “% of reference agonist maximal effect” value is reported as 85.3%.

In the case of `C=CCC(=O)N1CCC[C@H](c2cc[nH]n2)[C@@H]1CO[C@H]1CC[C@@H](C(C)C)CC1` (relative stereo) [Example 84, 1-((CIS)-2-((((CIS)-4-isopropylcyclohexyl)oxy)methyl)-3-(1H-pyrazol-3-yl)piperidin-1-yl)but-3-en-1-one], the EC50 was 7.14 µM and the “% of reference agonist maximal effect” value turned out to be 71.1%.

As for `CCNC(=O)N1CCCC(c2[nH]ncc2C)C1COC1CCC(C(C)C)CC1` (single isomer, unassigned) [Example 59, N-ethyl-2-(((4-isopropylcyclohexyl)oxy)methyl)-3-(4-methyl-1H-pyrazol-5-yl)piperidine-1-carboxamide], the concentration giving a half-maximal response (EC50) turned out to be 0.593 µM and the “% of reference agonist maximal effect” value is 98.3%.

Consider `CCNC(=O)N1CCC[C@H](c2ccn[nH]2)[C@@H]1CO[C@H]1CC[C@@H](C(C)C)CC1` (single isomer, unassigned) [Example 4], for which the concentration giving a half-maximal response (EC50) amounted to 0.276 µM and the “% of reference agonist maximal effect” value is given as 100.6%.

As for `CCc1c[nH]nc1[C@@H]1CCCN(C(=O)OC)[C@@H]1CO[C@H]1CC[C@@H](c2ccccc2)CC1` [Example 44, (2S,3R)-3-(4-ethyl-1H-pyrazol-3-yl)-2-((((CIS)-4-phenylcyclohexyl)oxy)methyl)piperidine-1-carboxylate], the EC50 was greater than 10 µM and the “% of reference agonist maximal effect” value is 9.5%.

`O=C(OCC1CCC1)N1CCC[C@H](c2cc[nH]n2)[C@@H]1CO[C@H]1CC[C@@H](c2ccccc2)CC1` (relative stereo) [Example 104, cyclobutylmethyl (CIS)-2-((((CIS)-4-phenylcyclohexyl)oxy)methyl)-3-(1H-pyrazol-3-yl)piperidine-1-carboxylate]: the concentration giving a half-maximal response (EC50) stood at 3.85 µM and the “% of reference agonist maximal effect” value stood at 65.1%.

For the molecule `CC(C)[C@H]1CC[C@@H](OC[C@H]2[C@@H](c3cc[nH]n3)CCCN2C(=O)OCc2ccccc2Cl)CC1` (relative stereo) [Example 93, 2-chlorobenzyl (CIS)-2-((((CIS)-4-isopropylcyclohexyl)oxy)methyl)-3-(1H-pyrazol-3-yl)piperidine-1-carboxylate], the EC50 worked out at 5.22 µM and the “% of reference agonist maximal effect” value was 28.5%.

`CCC(=O)N1CCC[C@H](c2cc[nH]n2)[C@@H]1CO[C@H]1CC[C@@H](C(C)C)CC1` (relative stereo) [Example 82, 1-((CIS)-2-((((CIS)-4-isopropylcyclohexyl)oxy)methyl)-3-(1H-pyrazol-3-yl)piperidin-1-yl)propan-1-one]: the EC50 amounted to 5.74 µM and the “% of reference agonist maximal effect” value was found to be 98.1%.

As to `COC(=O)N1CCC[C@H](c2n[nH]cc2I)[C@@H]1CO[C@H]1CC[C@@H](c2ccccc2)CC1` (relative stereo) [Example 42, Methyl cis-3-(4-iodo-1H-pyrazol-3-yl)-2-((((CIS)-4-phenylcyclohexyl)oxy)methyl)piperidine-1-carboxylate], the EC50 came to 0.0412 µM and the “% of reference agonist maximal effect” value amounted to 100.8%.

Take `COC(=O)N1CCC[C@H](c2cc[nH]n2)[C@@H]1CO[C@H]1CC[C@@H](c2ccccc2)CC1` (relative stereo) [Example 21, methyl (CIS)-2-((((CIS)-4-phenylcyclohexyl)oxy)methyl)-3-(1H-pyrazol-3-yl)piperidine-1-carboxylate]: the EC50 is 2.1 µM and the “% of reference agonist maximal effect” value is given as 79.9%.

In the case of `O=C(NCC(F)(F)F)N1CCCC(c2ccn[nH]2)C1CO[C@H]1CC[C@@H](c2c(F)ccc(F)c2F)CC1` (stereo partly drawn) [Example 34], the EC50 came out at 0.0178 µM and the “% of reference agonist maximal effect” value stood at 99.9%.

With `O=C(NC1COC1)N1CCC[C@H](c2cc[nH]n2)[C@@H]1CO[C@H]1CC[C@@H](c2ccccc2)CC1` (relative stereo) [Example 127, (CIS)-N-(oxetan-3-yl)-2-((((CIS)-4-phenylcyclohexyl)oxy)methyl)-3-(1H-pyrazol-3-yl)piperidine-1-carboxamide], the concentration giving a half-maximal response (EC50) worked out at 4.38 µM and the “% of reference agonist maximal effect” value came to 72%.

Take `O=C(OC1CCC1)N1CCC[C@H](c2cc[nH]n2)[C@@H]1CO[C@H]1CC[C@@H](c2ccccc2)CC1` (relative stereo) [Example 112, cyclobutyl (CIS)-2-((((CIS)-4-phenylcyclohexyl)oxy)methyl)-3-(1H-pyrazol-3-yl)piperidine-1-carboxylate]: the EC50 amounted to 6.36 µM and the “% of reference agonist maximal effect” value came out at 61.6%.

For `CO[C@@H](C)COC(=O)N1CCC[C@H](c2cc[nH]n2)[C@@H]1CO[C@H]1CC[C@@H](c2ccccc2)CC1` [Example 119, (S)-2-methoxypropyl (CIS)-2-((((CIS)-4-phenylcyclohexyl)oxy)methyl)-3-(1H-pyrazol-3-yl)piperidine-1-carboxylate], the EC50 came to 9.69 µM and the “% of reference agonist maximal effect” value is 50.6%.

Turning to `C#CCCCC(=O)N1CCC[C@H](c2cc[nH]n2)[C@@H]1CO[C@H]1CC[C@@H](C(C)C)CC1` (relative stereo) [Example 86, 1-((CIS)-2-((((CIS)-4-isopropylcyclohexyl)oxy)methyl)-3-(1H-pyrazol-3-yl)piperidin-1-yl)hex-5-yn-1-one], the EC50 is 8.39 µM and the “% of reference agonist maximal effect” value is recorded as 64.7%.

With `O=C(OC1CCCC1)N1CCC[C@H](c2cc[nH]n2)[C@@H]1CO[C@H]1CC[C@@H](c2ccccc2)CC1` (relative stereo) [Example 117, cyclopentyl (CIS)-2-((((CIS)-4-phenylcyclohexyl)oxy)methyl)-3-(1H-pyrazol-3-yl)piperidine-1-carboxylate], the 50% effective concentration (EC50) was 8 µM and the “% of reference agonist maximal effect” value worked out at 47.3%.
